Data from the supplement of paper PMC8967900.

Columns and labels:
Assay in all cases: selective drug sensitivity score (sDSS, relative to normal bone marrow) (sDSS (score)); higher = more potent and effective on the cell line relative to normal bone marrow cells
Conditions in all cases: 72 h
PF-382 = system: PF-382
HPB-ALL = system: HPB-ALL
NALM-6 = system: NALM-6
HAL-01 = system: HAL-01
CCRF-HSB2 = system: CCRF-HSB2
KASUMI-9 = system: KASUMI-9
RPMI-8402 = system: RPMI-8402
JURKAT = system: JURKAT
697 = system: 697
COG-LL-317 = system: COG-LL-317
KARPAS-45 = system: KARPAS-45
LC4-1 = system: LC4-1
NALM-16 = system: NALM-16
MOLT-4 = system: MOLT-4
DND-41 = system: DND-41
KASUMI-2 = system: KASUMI-2
ALL-PO = system: ALL-PO
NALL-1 = system: NALL-1
SUP-B15 = system: SUP-B15
COG-LL-402h = system: COG-LL-402h
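Also: ALL cell lines in 384-well plates, five doses spanning 10,000-fold, each plate scaled between vehicle and 100 µmol/L benzalkonium chloride controls, sDSS an adapted area-under-curve metric.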

| Structure (SMILES) | selective drug sensitivity score (PF-382) | selective drug sensitivity score (HPB-ALL) | selective drug sensitivity score (NALM-6) | selective drug sensitivity score (HAL-01) | selective drug sensitivity score (CCRF-HSB2) | selective drug sensitivity score (KASUMI-9) | selective drug sensitivity score (RPMI-8402) | selective drug sensitivity score (JURKAT) | selective drug sensitivity score 697 | selective drug sensitivity score (COG-LL-317) | selective drug sensitivity score (KARPAS-45) | selective drug sensitivity score (LC4-1) | selective drug sensitivity score (NALM-16) | selective drug sensitivity score (MOLT-4) | selective drug sensitivity score (DND-41) | selective drug sensitivity score (KASUMI-2) | selective drug sensitivity score (ALL-PO) | selective drug sensitivity score (NALL-1) | selective drug sensitivity score (SUP-B15) | selective drug sensitivity score (COG-LL-402h) |
| --- | --- | --- | --- | --- | --- | --- | --- | --- | --- | --- | --- | --- | --- | --- | --- | --- | --- | --- | --- | --- |
| Cn1cc(-c2ccc(F)c(C(F)(F)F)c2)nc1C1CCN(c2ncnc3[nH]ncc23)CC1 (top concentration 10000 nM) | -0.14 | -0.14 | -0.14 | 1.66 | -0.14 | 0.66 | -0.14 | -0.14 | 0.76 | 1.76 | 0.06 | 5.56 | -0.14 | 0.36 | 1.16 | 13.3 | 0.66 | 0.46 | 8.76 | -0.14 |
| O=C(Nc1ccc2[nH]nc(-c3ccncc3)c2c1)[C@@H]1CCN(CC(=O)N2CCN(c3ccc(-c4ncccn4)cc3)CC2)C1 (top concentration 10000 nM) | 0.56 | -0.44 | 4.76 | 0.06 | 3.26 | 0.36 | -1.64 | -2.04 | 0.66 | -2.04 | -0.84 | 4.26 | -4.24 | -3.04 | 4.46 | 6.16 | 3.76 | -4.14 | 12.6 | 1.76 |
| CC(C)(C)c1cc(NC(=O)Nc2ccc(Oc3ccnc4[nH]c(=O)cnc34)cc2F)n(-c2ccccc2)n1 (top concentration 25000 nM) | -3.88 | 1.12 | -0.98 | 2.02 | 3.12 | -1.18 | -3.18 | -1.48 | 4.72 | -2.18 | -1.48 | -1.48 | -2.78 | -2.98 | -0.78 | -1.38 | 5.72 | -0.38 | 10.6 | -1.78 |
| Nc1ncnc2c1nc(N)n2[C@@H]1O[C@H](CO)[C@@H](O)[C@H]1O [8-amino-adenosine] (top concentration 50000 nM) | 0.18 | -3.82 | 6.68 | 7.08 | 6.98 | 7.08 | 0.18 | -5.42 | 6.48 | 3.28 | -3.32 | 7.78 | 4.48 | -2.52 | -0.62 | 6.08 | 5.48 | 2.08 | 7.28 | 5.78 |
| CC(C)[C@@H](CS(=O)(=O)C(C)C)N1C(=O)[C@@](C)(CC(=O)O)C[C@H](c2cccc(Cl)c2)[C@H]1c1ccc(Cl)cc1 [AMG-232] (top concentration 10000 nM) | -8.94 | -9.34 | 7.96 | 11 | 9.26 | 13.1 | -9.14 | -8.34 | 9.06 | 15.1 | -8.34 | 11.3 | -10.2 | 10.1 | -8.84 | 12.3 | -6.94 | -8.14 | 16.5 | 9.26 |
| CC(C)[C@H](C(=O)Nc1ccc(C(=O)NO)cc1)c1ccccc1 [AR-42] (top concentration 10000 nM) | 5.78 | 9.78 | 4.48 | 3.28 | 7.28 | 8.08 | 8.18 | 5.28 | 9.58 | 6.48 | 10.8 | 6.88 | 1.68 | 7.08 | 6.98 | 16 | 10.7 | 3.68 | 9.58 | 10.8 |
| O=C(Nc1c[nH]nc1-c1nc2ccc(CN3CCOCC3)cc2[nH]1)NC1CC1 [AT9283] (top concentration 1000 nM) | 7.72 | -1.48 | 6.82 | 1.92 | 11.4 | 10.7 | 4.32 | -1.38 | 12.1 | 14.2 | 9.22 | 12.4 | -0.68 | 3.72 | -0.68 | 6.22 | 6.32 | 9.02 | 12.6 | 7.72 |
| CCN(CCO)CCCOc1ccc2c(Nc3cc(CC(=O)Nc4cccc(F)c4)[nH]n3)ncnc2c1 [AZD1152-HQPA] (top concentration 1000 nM) | 9.94 | 4.34 | 8.94 | -4.46 | 23.5 | 17.1 | 13 | -0.26 | 16.5 | 19.8 | 24.7 | 23.2 | 0.34 | 13.5 | -1.46 | 6.44 | 7.64 | 9.54 | 22.2 | 18.4 |
| Cc1[nH]nc(C(F)(F)F)c1Cc1sc2c(c1C(=O)N1C[C@](C)(O)CO1)c(=O)n(C)c(=O)n2C(C)C [AZD3965] (top concentration 1000 nM) | 1.7 | 0.1 | 11.1 | 1 | 0 | 2.7 | 12.6 | 0 | 3.6 | 0.3 | 0 | 1.5 | 0 | 0 | 0 | 3.8 | 3.8 | 3.8 | 7.1 | 0 |
